We go through 15 compounds from ChEMBL document CHEMBL1149119, “Discovery of a potent and novel motilin agonist” (J Med Chem, 2004).

Structures are written as SMILES.

The target of test [1] is T1, Motilin receptor (Homo sapiens, UniProt O43193). Briefly: In vitro binding affinity towards human motilin receptor.
For test [2], the target named is T1, Motilin receptor. Briefly: In vitro effective concentration towards human motilin receptor. It counts as functional.

T1 sequence (O43193 whole entry): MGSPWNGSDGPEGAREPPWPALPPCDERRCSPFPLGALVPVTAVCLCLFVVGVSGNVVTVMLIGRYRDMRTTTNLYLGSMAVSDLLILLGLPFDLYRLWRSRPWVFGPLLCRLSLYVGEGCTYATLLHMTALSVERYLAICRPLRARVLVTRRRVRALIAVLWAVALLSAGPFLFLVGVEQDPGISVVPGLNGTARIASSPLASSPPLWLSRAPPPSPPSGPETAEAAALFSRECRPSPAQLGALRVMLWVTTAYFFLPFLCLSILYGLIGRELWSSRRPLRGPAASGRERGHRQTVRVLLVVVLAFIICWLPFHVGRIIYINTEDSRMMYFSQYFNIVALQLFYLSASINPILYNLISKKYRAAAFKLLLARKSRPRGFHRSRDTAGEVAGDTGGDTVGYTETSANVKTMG

For `NC(=O)[C@H](CCc1ccccc1)NC(=O)C1C=CC2(CCNCC2)n2c(=O)n(Cc3ccc4c(c3)OCO4)c(=O)n21` (stereo in doubt; 1A), affinity on Motilin receptor [1] was put at a Ki of 5800 nM. Further, the EC50 on Motilin receptor [2] was over 10000 nM. `NC(=O)[C@H](CCc1ccccc1)NC(=O)C1C=CC2(CCNCC2)n2c(=O)n(Cc3ccc4c(c3)OCO4)c(=O)n21` (stereo in doubt; 13B) displayed a Ki on Motilin receptor [1] of over 10000 nM. The 50% effective concentration (EC50) on Motilin receptor [2] was over 10000 nM. The compound `NC(=O)[C@H](CCc1ccccc1)NC(=O)[C@H](CCc1ccccc1)NC(=O)C1CCC2(CCNCC2)n2c(=O)n(Cc3ccc4c(c3)OCO4)c(=O)n21` (stereo in doubt; 11) displayed an inhibition constant (Ki) at Motilin receptor [1] of 1 nM. On Motilin receptor [2], the EC50 is 0.35 nM. `NC(=O)[C@H](CCc1ccccc1)NC(=O)C1C=CC2(CCNCC2)n2c(=O)n(Cc3ccc4c(c3)OCO4)c(=O)n21` (stereo in doubt; 1B) returned a Ki at Motilin receptor [1] of 4100 nM. On Motilin receptor [2], the EC50 amounted to 560 nM. For `NC(=O)[C@H](Cc1ccccc1)NC(=O)C1C=CC2(CCNCC2)n2c(=O)n(Cc3ccc4c(c3)OCO4)c(=O)n21` (stereo partly specified), the EC50 at Motilin receptor [2] was over 10000 nM. Same read-out and setting: under `NC(=O)[C@@H](Cc1ccccc1)NC(=O)C1C=CC2(CCNCC2)n2c(=O)n(Cc3ccc4c(c3)OCO4)c(=O)n21` (stereo partly specified) stands 4200 nM. Consider `NC(=O)[C@@H](CCc1ccccc1)NC(=O)[C@@H](CCc1ccccc1)NC(=O)C1CCC2(CCNCC2)n2c(=O)n(Cc3ccc4c(c3)OCO4)c(=O)n21` (stereo partly specified), for which the inhibition constant Ki on Motilin receptor [1] stood at 2.7 nM. Besides, the concentration for a half-maximal effect (EC50) on Motilin receptor [2] was 7.3 nM. For `COC(=O)[C@@H](CCc1ccccc1)NC(=O)C1C=CC2(CCNCC2)n2c(=O)n(Cc3ccc4c(c3)OCO4)c(=O)n21` (stereo partly specified), in that order: over 10000 nM and over 10000 nM. Compound `C[C@H](NC(=O)C1C=CC2(CCNCC2)n2c(=O)n(Cc3ccc4c(c3)OCO4)c(=O)n21)C(N)=O` (stereo partly specified) showed a concentration for a half-maximal effect (EC50) on Motilin receptor [2] of over 10000 nM.

As for `CC[C@H]1OC(=O)[C@H](C)[C@@H](O[C@H]2C[C@@](C)(OC)C[C@@H](C)O2)[C@H](C)[C@@H](O[C@@H]2O[C@H](C)C[C@H](N(C)CC)[C@H]2O)[C@@]2(C)CC(C)=C(O2)[C@H](C)[C@@H](O)[C@H]1C`, the inhibition constant (Ki) at Motilin receptor [1] turned out to be 3.4 nM. In addition, on Motilin receptor [2], the EC50 stood at 4.2 nM. In the same order, the values of `NC(=O)[C@H](CCc1ccccc1)NC(=O)[C@H](CCc1ccccc1)NC(=O)C1CCC2(CCNCC2)n2c(=O)n(Cc3ccc4c(c3)OCO4)c(=O)n21` (stereo in doubt; 11A) are 0.7 nM and 0.047 nM. For the compound `NC(=O)[C@H](CCc1ccccc1)NC(=O)[C@H](CCc1ccccc1)NC(=O)C1C=CC2(CCNCC2)n2c(=O)n(Cc3ccc4c(c3)OCO4)c(=O)n21` (stereo partly specified), the inhibitory constant (Ki) at Motilin receptor [1] was determined as 2 nM. The EC50 on Motilin receptor [2] was 0.22 nM. In the same order, the values of `NC(=O)[C@@H](CCc1ccccc1)NC(=O)C1C=CC2(CCNCC2)n2c(=O)n(Cc3ccc4c(c3)OCO4)c(=O)n21` (stereo partly specified) are over 10000 nM and over 10000 nM. The compound `C[C@@H](NC(=O)C1C=CC2(CCNCC2)n2c(=O)n(Cc3ccc4c(c3)OCO4)c(=O)n21)C(N)=O` (stereo partly specified) registered a concentration for a half-maximal effect (EC50) at Motilin receptor [2] of over 10000 nM. At Motilin receptor [1], `CC[C@H](C)[C@H](NC(=O)[C@@H]1CCCN1C(=O)[C@@H](NC(=O)[C@@H](N)Cc1ccccc1)C(C)C)C(=O)N[C@@H](Cc1ccccc1)C(=O)N[C@H](C(=O)N[C@@H](Cc1ccc(O)cc1)C(=O)NCC(=O)N[C@@H](CCC(=O)O)C(=O)N[C@@H](CC(C)C)C(=O)N[C@@H](CCC(N)=O)C(=O)N[C@@H](CCCNC(=N)N)C(=O)N[C@@H](CCSC)C(=O)N[C@@H](CCC(N)=O)C(=O)N[C@@H](CCC(=O)O)C(=O)N[C@@H](CCCCN)C(=O)N[C@@H](CCC(=O)O)C(=O)N[C@@H](CCCNC(=N)N)C(=O)N[C@@H](CC(N)=O)C(=O)N[C@@H](CCCCN)C(=O)NCC(=O)N[C@@H](CCC(N)=O)C(=O)O)[C@@H](C)O` [MOTILIN] showed a Ki of 3.1 nM. The same compound displayed an EC50 on Motilin receptor [2] of 0.15 nM.

The term Ki denotes the dissociation constant of the complex between target and ligand, obtained from inhibition or displacement. A low value points to higher affinity. By EC50 is commonly meant the midpoint of the concentration-response curve. Low readings indicate a more potent agent, high ones a less potent agent.
